Data on 13 compounds can be found in the supplement of paper PMC4862054.

The structures appear in SMILES notation.

Holding throughout (settings): incubation time: 72 h
The subject of test [1] is CAL-85-1. Description: drug sensitivity score (DSS), CellTiter-Glo (DSS (AUC-based score)); higher = stronger drug effect (viability inhibition or cytotoxicity); extreme values may be limits of the assay. The method in brief:
(§1)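 Compound was dispensed into 384-well plates at 5 concentrations in 10-fold steps spanning a 10,000-fold range chosen for each compound, and 20 µl of breast cancer cell suspension was added before 72 h of incubation. CellTox Green fluorescence was read at 485/520 nm, followed by CellTiter-Glo luminescence after 10 min at room temperature. Values on each plate were normalised to 0.1 % DMSO and a positive kill control. The drug sensitivity score came from the area under the fitted dose-response curve.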
On the technique in general: In ATP-based viability assays light output follows the ATP content of the culture.

For test [2], the system named is HDQ-P1. The description is as above. In short, it runs like this:
as §1

Test [3] deals with BT-474. The experiment in a line: normalised response (% of control), CellTox Green; higher = less cell death (100 = DMSO, 0 = benzethonium chloride kill control). The method in brief:
(§2)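 In 384-well plates holding compound at 5 concentrations in 10-fold steps over a 10,000-fold range specific to each compound, breast cancer cell lines were seeded as 20 µl suspension and incubated 72 h. CellTox Green fluorescence was measured at 485/520 nm, after which CellTiter-Glo luminescence was measured following 10 min at room temperature. Plate signals were normalised to 0.1 % DMSO (100) and a positive kill control (0), and each value is the normalised signal at a single concentration.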

Test [4] concerns BT-549. The test is described as above. The method in brief: as §2
In test [5] the test system is CAL-120. The test is described as above. In short, it runs like this: as §2
Test [6] has as its system CAL-148. The description is as above. In short, it runs like this: as §2
Test [7] has as its system CAL-51. Described as above. The method in brief:
as §2

Test [8] deals with CAL-85-1. The description is as above. The method in brief:
as §2

For test [9], the system named is DU-4475. Described as above. The method in brief: as §2
Test [10] relates to HCC1143. Described as above. In short, it runs like this:
as §2

For test [11], the system named is HCC1599. The test is described as above. The method in brief:
as §2

Test [12] concerns HCC1937. The test is described as above. The method in brief:
as §2

The test system of test [13] is HDQ-P1. Described as above. In short, it runs like this:
as §2

Test [14] has as its system Hs578T. Described as above. In short, it runs like this: as §2
For test [15], the system named is MCF-10A. Described as above. In short, it runs like this: as §2
For test [16], the system named is MDA-MB-231. Described as above. In short, it runs like this: as §2
Test [17] relates to MDA-MB-436. The test is described as above. The method in brief:
as §2

The test system of test [18] is MDA-MB-453. The test is described as above. In short, it runs like this:
as §2

Test [19] has as its system MDA-MB-468. Described as above. In short, it runs like this: as §2
Test [20] deals with MFM-223. The test is described as above. The method in brief: as §2

With `Cc1c(Cn2c(C)nc3c(C(=O)O)cc(N4CCOCC4)cc32)cccc1C(F)(F)F`, the drug sensitivity score in test [1] and in test [2] was 0 in each case.

Take `CC(=O)OC[C@H]1O[C@@H]([S-])[C@H](OC(C)=O)[C@@H](OC(C)=O)[C@@H]1OC(C)=O.CCP(CC)CC.[Au+]` [Auranofin]: the drug sensitivity score in test [1] stood at 6.05; in test [2], 3.9.

Consider `CC/C(=C(\c1ccc(O)cc1)c1ccc(OCCN(C)C)cc1)c1ccccc1` [4-hydroxytamoxifen], for which the drug sensitivity score in test [1] worked out at 3.01; in test [2] it was 0.

As for `Cn1cc(CNCC2CCN(c3ncc(C(=O)NO)cn3)CC2)c2ccccc21` [Quisinostat], the drug sensitivity score was 16.4 in test [1] and 10.3 in test [2].

On to `Cc1cccc(-c2nn3c(c2-c2ccnc4ccc(C(N)=O)cc24)CCC3)n1` [Galunisertib], for which the drug sensitivity score in test [1] and in test [2] was 0 throughout.

For the compound `CNC(=O)c1cc(Oc2ccc(NC(=O)Nc3ccc(Cl)c(C(F)(F)F)c3)cc2)ccn1` [Sorafenib] (1000 nM), the normalised response amounted to 100% in [3]; 111% in [4]; 101% in test [5]; 74.5% in [6]; 115% in test [7]; 89.9% in test [8]. Besides, the normalised response is 97.7% in [9]; 101% in [10]; 97.5% in test [11]; 99.2% in test [12]; 103% in test [13]; 118% in [14]. Further, the normalised response in test [15] came to 89%; in [16], 100%; in [17], 87.5%; in test [18], 102%; in [19], 70.1%; in [20], 92.8%.

On to `O=C1c2c(O)ccc(O)c2C(=O)c2c(NCCNCCO)ccc(NCCNCCO)c21` [Mitoxantrone] (1000 nM), for which the normalised response in test [3] stood at 95.7%; in test [4], 108%; in test [5], 107%; in test [6], 52.5%; in test [7], 60%; in test [8], 104%. Besides, the normalised response in test [9] amounted to 94.2%; in test [10], 119%; in test [11] it was 112%; in test [12] it was 117%; in [13], 98.8%; in test [14], 112%. Moreover, the normalised response in test [15] is 112%; in test [16], 119%; in test [17] it was 78%; in test [18], 112%; in test [19] it was 217%; in [20], 88%.

Regarding `COc1ccc(-c2cc3c(C)nc(N)nc3n([C@H]3CC[C@H](OCCO)CC3)c2=O)cn1` (10000 nM), the normalised response in [3] is -9.27%; in test [4], 0.06%; in test [5], 75.8%; in test [6] it was -9.66%; in [7] it was 17.6%; in test [8], 52.1%. Besides, the normalised response in [9] was 67.2%; in test [10], 91.1%; in [11], 92.1%; in test [12] it was 41.4%; in [13], -2.73%; in test [14], 28.7%. The normalised response was 72.4% in test [15]; 4.33% in test [16]; 100% in test [17]; 61.1% in [18]; 59.9% in test [19]; 52.8% in [20].

Consider `CC(C)N(CCCNC(=O)Nc1ccc(C(C)(C)C)cc1)C[C@H]1O[C@@H](n2cc(Br)c3c(N)ncnc32)[C@H](O)[C@@H]1O` [SGC0946], for which the drug sensitivity score in test [1] and in test [2] was 0 each time.

Take `C[C@]12O[C@H](C[C@]1(O)CO)n1c3ccccc3c3c4c(c5c6ccccc6n2c5c31)CNC4=O` [Lestaurtinib] (1000 nM): the normalised response in [3] amounted to 77.2%; in test [4] it was 50%; in test [5], 65.5%; in test [6], 67%; in test [7], 111%; in test [8], 21.5%. Besides, the normalised response in [9] was determined as 71.7%; in [10], 73.5%; in test [11], 57.5%; in test [12] it was 89.6%; in test [13], 76.4%; in test [14], 25.3%. Further, the normalised response in test [15] was found to be 66%; in [16], 89.2%; in test [17], 51.6%; in [18] it was 104%; in test [19] it was 107%; in [20], 89.8%.

Turning to `CS(=O)(=O)N1CCN(Cc2cc3nc(-c4cccc5[nH]ncc45)nc(N4CCOCC4)c3s2)CC1` [Pictilisib], the drug sensitivity score in test [1] was determined as 8.59; in [2] it was 11.9.

Take `COc1nc(N)nc2c1ncn2[C@@H]1O[C@H](CO)[C@@H](O)[C@@H]1O` [Nelarabine] (10000 nM): the normalised response in [3] is 96%; in [4] it was 87.5%; in [5], 93.8%; in [6], 100%; in [7] it was 111%; in test [8], 138%. Besides, the normalised response in test [9] was 98.5%; in [10], 99.1%; in test [11] it was 96.5%; in test [12], 94.5%; in test [13] it was 111%; in test [14] it was 91.4%. In addition, the normalised response in [15] came out at 83.2%; in test [16], 97.9%; in test [17], 91%; in test [18] it was 87%; in test [19] it was 122%; in [20], 87.6%.

For the compound `Cc1c(CN2CCN(C(=O)[C@H](C)O)CC2)sc2c(N3CCOCC3)nc(-c3cnc(N)nc3)nc12` [GDC-0980] (1000 nM), the normalised response in test [3] worked out at 85.6%; in [4], 108%; in test [5], 103%; in test [6] it was 68.3%; in test [7] it was 90.8%; in test [8], 97.7%. Besides, the normalised response in [9] is 98.7%; in test [10], 85%; in [11] it was 99.9%; in test [12], 107%; in [13], 103%; in test [14], 107%. Moreover, the normalised response amounted to 100% in test [15]; 98.8% in test [16]; 102% in test [17]; 104% in test [18]; 117% in test [19]; 76.5% in test [20].
